Values of other authors as cited in patent publication US20230303712A1, “METHODS OF TREATING GLIOBLASTOMA” (Ramot at Tel-Aviv University Ltd., priority 2020, published 2023).

T1: P-Selectin (Homo sapiens, UniProt P16109)
T1 sequence (P16109 42-830): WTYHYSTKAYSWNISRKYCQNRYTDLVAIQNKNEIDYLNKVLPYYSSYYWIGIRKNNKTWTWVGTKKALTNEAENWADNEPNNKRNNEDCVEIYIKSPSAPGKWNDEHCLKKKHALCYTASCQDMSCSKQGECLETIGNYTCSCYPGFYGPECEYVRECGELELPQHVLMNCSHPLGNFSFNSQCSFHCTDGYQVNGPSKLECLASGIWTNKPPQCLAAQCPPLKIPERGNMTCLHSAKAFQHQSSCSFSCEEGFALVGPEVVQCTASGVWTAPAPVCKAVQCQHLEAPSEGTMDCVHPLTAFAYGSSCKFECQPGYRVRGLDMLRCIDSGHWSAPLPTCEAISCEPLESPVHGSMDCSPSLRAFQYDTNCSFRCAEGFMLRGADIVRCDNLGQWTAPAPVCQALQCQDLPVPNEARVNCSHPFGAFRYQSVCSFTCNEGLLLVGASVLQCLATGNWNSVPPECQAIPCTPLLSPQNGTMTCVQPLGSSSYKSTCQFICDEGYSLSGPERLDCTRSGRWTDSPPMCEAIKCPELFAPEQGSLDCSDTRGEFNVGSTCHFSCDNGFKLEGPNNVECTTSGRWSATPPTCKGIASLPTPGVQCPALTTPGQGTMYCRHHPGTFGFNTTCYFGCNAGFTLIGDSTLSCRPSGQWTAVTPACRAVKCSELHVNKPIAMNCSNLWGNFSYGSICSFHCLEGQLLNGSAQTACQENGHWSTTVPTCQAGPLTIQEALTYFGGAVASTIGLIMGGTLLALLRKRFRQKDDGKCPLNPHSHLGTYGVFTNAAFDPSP

T2: E-Selectin (Homo sapiens, UniProt P16581)
T2 sequence (P16581 22-610): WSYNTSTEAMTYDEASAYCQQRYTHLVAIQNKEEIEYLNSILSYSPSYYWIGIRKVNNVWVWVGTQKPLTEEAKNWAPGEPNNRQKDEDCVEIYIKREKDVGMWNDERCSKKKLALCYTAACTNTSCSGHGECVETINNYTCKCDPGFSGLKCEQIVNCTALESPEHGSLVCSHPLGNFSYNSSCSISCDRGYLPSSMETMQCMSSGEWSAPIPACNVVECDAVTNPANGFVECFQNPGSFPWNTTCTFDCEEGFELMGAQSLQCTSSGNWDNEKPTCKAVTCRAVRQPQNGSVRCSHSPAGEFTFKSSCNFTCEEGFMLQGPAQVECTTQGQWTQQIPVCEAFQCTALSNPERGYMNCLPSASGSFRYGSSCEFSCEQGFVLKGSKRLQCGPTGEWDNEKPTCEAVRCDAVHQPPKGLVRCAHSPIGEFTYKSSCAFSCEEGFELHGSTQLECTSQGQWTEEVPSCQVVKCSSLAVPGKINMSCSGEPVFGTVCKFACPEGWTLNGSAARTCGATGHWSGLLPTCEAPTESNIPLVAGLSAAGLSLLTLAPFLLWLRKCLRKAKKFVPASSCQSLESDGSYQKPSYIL

T3: L-Selectin (Homo sapiens, UniProt P14151)
T3 sequence (P14151 39-372): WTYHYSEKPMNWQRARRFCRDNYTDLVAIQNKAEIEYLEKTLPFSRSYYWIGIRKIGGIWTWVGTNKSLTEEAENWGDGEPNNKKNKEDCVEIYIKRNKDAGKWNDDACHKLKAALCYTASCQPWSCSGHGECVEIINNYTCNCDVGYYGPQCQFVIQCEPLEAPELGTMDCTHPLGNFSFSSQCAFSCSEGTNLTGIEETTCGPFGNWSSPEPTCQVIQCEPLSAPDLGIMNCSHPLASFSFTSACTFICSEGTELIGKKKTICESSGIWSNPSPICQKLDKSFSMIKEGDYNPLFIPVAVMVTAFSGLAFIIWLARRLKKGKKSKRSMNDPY


How the values were obtained:
[1] = biological target: T1, P-Selectin; conditions: in humans in vitro; cited from earlier work
[2] = biological target: T2, E-Selectin; conditions: in humans in vitro; cited from earlier work
[3] = biological target: T3, L-Selectin; conditions: in humans in vitro; cited from earlier work
[4] = different animal models; cited from earlier work
[5] = administered systemically; cited from earlier work

Row | Molecule | P-selectin-dependent adhesion [1] | E-selectin-dependent adhesion [2] | L-selectin-dependent adhesion [3] | anti-inflammatory effects [4] | tolerability in patients [5]
1 | O=C(O)Cc1cccc(-c2cc(CCCCCCc3ccc(OC4O[C@H](CO)C(O)[C@H](O)[C@@H]4O)c(-c4cccc(CC(=O)O)c4)c3)ccc2OC2O[C@H](CO)C(O)[C@H](O)[C@@H]2O)c1 (stereo partly drawn) [Bimosiamose (TBC1269)] | inhibit | inhibit | inhibit | anti-inflammatory effects | –
2 | inclacumab: monoclonal antibody directed towards P-selectin | – | – | – | – | well tolerated
3 | crizanlizumab: Humanized monoclonal anti-P-selectin antibody (antibody, chains of the INN, looked up, V domains shown) VH: QVQLVQSGAEVKKPGASVKVSCKVSGYTFTSYDINWVRQAPGKGLEWMGWIYPGDGSIKYNEKFKGRVTMTVDKSTDTAYMELSSLRSEDTAVYYCARRGEYGNYEGAMDYWGQGTLVTVSS VL: DIQMTQSPSSLSASVGDRVTITCKASQSVDYDGHSYMNWYQQKPGKAPKLLIYAASNLESGVPSRFSGSGSGTDFTLTISSLQPEDFATYYCQQSDENPLTFGGGTKVEIK | – | – | – | – | well tolerated
